Test [1] concerns normal human liver L-O2 cells. Nature of the test: In vitro toxicity test. Type of test: cell-based. The conditions noted are these: for IC50: Homo sapiens, L02, 72 h, read-out: IC50 L-O2 cells; for SI (selectivity index): ratio of IC50 of L-O2 cells divided by that of HL-60 cells.
The target in a further test is T1, HDAC10 (Homo sapiens, UniProt Q969S8).
T1 sequence (Q969S8 1-669): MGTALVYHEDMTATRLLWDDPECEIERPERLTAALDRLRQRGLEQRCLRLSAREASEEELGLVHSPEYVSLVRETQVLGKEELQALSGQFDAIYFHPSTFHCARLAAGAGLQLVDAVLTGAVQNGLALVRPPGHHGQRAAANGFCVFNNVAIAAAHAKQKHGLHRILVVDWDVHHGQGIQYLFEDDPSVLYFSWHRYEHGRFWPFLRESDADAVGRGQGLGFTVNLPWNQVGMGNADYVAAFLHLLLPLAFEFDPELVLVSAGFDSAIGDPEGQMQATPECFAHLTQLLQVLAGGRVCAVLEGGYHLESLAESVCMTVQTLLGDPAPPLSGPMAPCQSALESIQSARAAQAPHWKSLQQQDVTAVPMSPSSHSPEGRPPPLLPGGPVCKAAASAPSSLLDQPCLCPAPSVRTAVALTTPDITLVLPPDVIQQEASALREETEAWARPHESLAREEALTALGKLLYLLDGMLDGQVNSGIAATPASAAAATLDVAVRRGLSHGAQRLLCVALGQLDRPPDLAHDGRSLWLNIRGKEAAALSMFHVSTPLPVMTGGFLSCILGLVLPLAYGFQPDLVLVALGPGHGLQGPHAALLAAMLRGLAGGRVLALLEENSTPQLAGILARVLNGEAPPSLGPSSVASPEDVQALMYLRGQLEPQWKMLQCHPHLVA
Put plainly: In vitro HDAC10 inhibition assay. Type of test: biochemical.

Test [2] has as its system colon cancer HCT-116 cells. Nature of the test: MTT cell growth inhibition assay, HCT-116. The conditions noted are these: for IC50: Homo sapiens, HCT-116, 72 h, read-out: IC50 HCT-116 cells. Type of test: cell-based, human.
The test system of test [3] is promyelocytic leukaemia HL-60 cells. Put plainly: MTT cell growth inhibition assay, HL-60. Type of test: cell-based. The conditions noted are these: Homo sapiens, HL-60, 72 h, read-out: IC50 HL-60 cells.
The target in the next test is HDAC1 (Homo sapiens, UniProt Q13547). Nature of the test: In vitro HDAC1 inhibition assay. Type of test: biochemical. The conditions noted are these: for IC50 HDAC1: mean ± SEM of three independent assays, NA: IC50 not apparent even with the compound tested >10 μM; for SI (selectivity index): ratio of IC50 of HDAC6 divided by that of HDAC1.
Test [4] concerns HL-60 cells. Put plainly: Cell cycle analysis by flow cytometry. The conditions noted are these: HL-60, 48 h. Type of test: cell-based, human. On the technique in general: Flow cytometry measures light scatter and fluorescence of single cells or particles in a stream.
Test [5] concerns HL-60 cells. Nature of the test: Western blot analysis in HL-60 cells. Type of test: cell-based, human. The conditions noted are these: 48 h; for histone H3 acetylation (Ac-H3) level: different concentrations; for expression of Rb / expression of p-Rb / expression of γ-H2AX: increasing concentration.
The next test addresses T2, HDAC8 (Homo sapiens, UniProt Q9BY41).
T2 sequence (Q9BY41 1-377): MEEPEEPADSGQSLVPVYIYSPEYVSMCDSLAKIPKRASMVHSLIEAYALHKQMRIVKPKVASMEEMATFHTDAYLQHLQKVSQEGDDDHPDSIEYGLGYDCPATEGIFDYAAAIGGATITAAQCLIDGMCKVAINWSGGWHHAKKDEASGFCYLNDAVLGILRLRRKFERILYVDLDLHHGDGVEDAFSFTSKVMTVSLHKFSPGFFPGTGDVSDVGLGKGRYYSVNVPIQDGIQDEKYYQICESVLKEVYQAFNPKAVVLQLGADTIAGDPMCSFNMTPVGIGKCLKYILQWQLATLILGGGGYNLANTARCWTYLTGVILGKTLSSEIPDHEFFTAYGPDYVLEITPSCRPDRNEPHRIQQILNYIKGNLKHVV
Put plainly: In vitro HDAC8 inhibition assay. Type of test: biochemical. The conditions noted are these: for IC50 HDAC8: mean ± SEM of three independent assays.

Test [6] concerns HL-60 cells. Nature of the test: Cell apoptosis detection. Type of test: cell-based, human. The conditions noted are these: HL-60, 48 h.
The target in the next test is HDAC3 (Homo sapiens, UniProt O15379). Put plainly: In vitro HDAC3 inhibition assay. Type of test: biochemical.
The target of a further test is T3, HDAC6 (Homo sapiens, UniProt Q9UBN7).
T3 sequence (Q9UBN7 1-1215): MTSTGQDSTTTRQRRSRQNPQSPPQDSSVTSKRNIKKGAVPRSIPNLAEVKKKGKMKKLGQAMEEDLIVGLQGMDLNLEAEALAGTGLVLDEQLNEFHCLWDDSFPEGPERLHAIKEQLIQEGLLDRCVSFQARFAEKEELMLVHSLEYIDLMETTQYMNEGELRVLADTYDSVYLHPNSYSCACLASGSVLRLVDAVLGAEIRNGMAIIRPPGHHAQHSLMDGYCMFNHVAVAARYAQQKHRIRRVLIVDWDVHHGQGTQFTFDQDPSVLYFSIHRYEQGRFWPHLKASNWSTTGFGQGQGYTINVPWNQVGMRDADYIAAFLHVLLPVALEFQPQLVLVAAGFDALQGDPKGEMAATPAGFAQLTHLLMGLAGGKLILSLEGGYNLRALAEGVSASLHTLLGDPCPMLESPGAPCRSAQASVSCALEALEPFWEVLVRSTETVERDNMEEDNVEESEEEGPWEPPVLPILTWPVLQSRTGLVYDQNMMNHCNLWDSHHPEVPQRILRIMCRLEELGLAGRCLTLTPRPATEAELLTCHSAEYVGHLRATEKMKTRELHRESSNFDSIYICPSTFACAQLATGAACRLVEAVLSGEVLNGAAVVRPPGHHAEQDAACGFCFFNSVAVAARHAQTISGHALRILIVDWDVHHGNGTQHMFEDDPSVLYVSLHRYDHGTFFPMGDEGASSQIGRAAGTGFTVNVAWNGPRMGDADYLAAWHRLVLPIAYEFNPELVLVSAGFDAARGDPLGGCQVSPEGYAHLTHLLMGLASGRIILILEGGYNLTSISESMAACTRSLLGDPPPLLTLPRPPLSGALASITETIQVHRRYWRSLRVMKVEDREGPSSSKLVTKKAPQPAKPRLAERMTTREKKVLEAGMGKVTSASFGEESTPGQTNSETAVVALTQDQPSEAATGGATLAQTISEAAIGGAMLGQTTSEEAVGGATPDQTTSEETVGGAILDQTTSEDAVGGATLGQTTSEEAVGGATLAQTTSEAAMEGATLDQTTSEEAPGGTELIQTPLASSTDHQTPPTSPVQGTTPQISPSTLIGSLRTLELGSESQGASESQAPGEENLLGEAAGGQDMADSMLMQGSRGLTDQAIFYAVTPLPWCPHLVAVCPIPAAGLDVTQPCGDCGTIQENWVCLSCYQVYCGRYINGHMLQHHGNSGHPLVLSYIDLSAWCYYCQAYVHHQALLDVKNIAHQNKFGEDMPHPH
Nature of the test: In vitro HDAC6 inhibition assay. The conditions noted are these: mean ± SEM of three independent assays; NA: IC50 not apparent even with the compound tested >10 μM. Type of test: biochemical.

Entries after “also recorded” stand apart in the source; their conditions may differ.

Results on 8 molecules are retold here after PMC10165928 (Journal of Enzyme Inhibition and Medicinal Chemistry, 2023).

Sequence of HDAC1 (Q13547 whole entry): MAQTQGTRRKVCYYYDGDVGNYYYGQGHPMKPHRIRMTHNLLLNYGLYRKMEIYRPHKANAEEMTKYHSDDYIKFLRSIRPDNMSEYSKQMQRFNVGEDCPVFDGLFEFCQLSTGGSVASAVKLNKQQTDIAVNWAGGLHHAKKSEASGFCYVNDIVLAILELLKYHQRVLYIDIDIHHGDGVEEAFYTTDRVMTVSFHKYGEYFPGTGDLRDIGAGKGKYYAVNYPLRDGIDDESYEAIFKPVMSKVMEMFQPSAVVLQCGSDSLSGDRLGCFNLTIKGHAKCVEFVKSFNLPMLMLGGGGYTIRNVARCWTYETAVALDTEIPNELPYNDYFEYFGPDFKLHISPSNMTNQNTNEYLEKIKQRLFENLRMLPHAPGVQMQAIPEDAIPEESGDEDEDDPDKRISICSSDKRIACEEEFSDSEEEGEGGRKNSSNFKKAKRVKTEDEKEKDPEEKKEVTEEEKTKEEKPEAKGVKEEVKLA
Sequence of HDAC3 (O15379 whole entry): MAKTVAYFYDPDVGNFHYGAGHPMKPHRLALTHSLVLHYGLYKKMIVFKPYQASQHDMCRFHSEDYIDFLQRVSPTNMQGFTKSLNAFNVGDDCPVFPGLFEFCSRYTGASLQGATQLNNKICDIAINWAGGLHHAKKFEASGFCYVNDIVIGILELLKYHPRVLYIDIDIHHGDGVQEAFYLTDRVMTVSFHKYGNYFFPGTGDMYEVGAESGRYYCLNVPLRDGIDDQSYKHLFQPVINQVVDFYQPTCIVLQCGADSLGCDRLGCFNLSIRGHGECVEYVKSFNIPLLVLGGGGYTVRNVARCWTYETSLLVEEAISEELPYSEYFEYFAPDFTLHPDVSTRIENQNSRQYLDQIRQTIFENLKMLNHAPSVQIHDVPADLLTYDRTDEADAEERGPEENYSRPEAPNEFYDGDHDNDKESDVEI
Sequence of HDAC3 (Q9Y618 395-489 partner limits assumed): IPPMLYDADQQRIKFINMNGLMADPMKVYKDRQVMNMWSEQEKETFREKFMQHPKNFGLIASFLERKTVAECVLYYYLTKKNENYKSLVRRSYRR

As to `Nc1cc(F)ccc1NC(=O)c1ccc(CNC(=O)/C=C/c2cccnc2)cc1` [Chidamide, chidamide, reference compound], the IC50 – broadly, the concentration needed to halve the response being measured – came out at 8.87 ± 0.93 µM in test [1], 259 ± 23 nM at HDAC10, 3.86 ± 1.08 µM in test [2] and 860 ± 70 nM in test [3].
As to `Nc1cc(F)ccc1NC(=O)c1ccc(Cl)c2c(=O)c3cccc([N+](=O)[O-])c3[nH]c12` [Compound 8a, N-(2-amino-4-fluorophenyl)-1-chloro-5-nitro-9-oxo-9,10-dihydroacridine-4-carboxamide], at HDAC1, the “IC50 HDAC1” value is “completely lost”.
As to `COc1cccc2c(=O)c3c(Cl)ccc(C(=O)NCCCC(=O)Nc4ccccc4N)c3[nH]c12` [Compound 11a, N-(4-((2-aminophenyl)amino)-4-oxobutyl)-1-chloro-5-methoxy-9-oxo-9,10-dihydroacridine-4-carboxamide], in test [2] (MTT, 72 h, mean ± SEM of three assays, NA: IC50 not apparent even with the compound tested >50 μM), the “IC50 HCT-116 cells” value is “no anti-proliferation activity”. Moreover, on HDAC1, the IC50 was 4090 ± 273 nM and the “SI (selectivity index)” value is over 2.4. For the same molecule, the 50% inhibitory concentration (IC50) in [3] amounted to 13200 ± 2430 nM.
Turning to `COc1cccc2c(=O)c3c(Cl)ccc(C(=O)NCCCCCC(=O)Nc4ccccc4N)c3[nH]c12` [Compound 11b, N-(6-((2-aminophenyl)amino)-6-oxohexyl)-1-chloro-5-methoxy-9-oxo-9,10-dihydroacridine-4-carboxamide], the IC50 in test [1] is 5 ± 0.33 µM; against HDAC10 it was 387 ± 64 nM; in [2] it was 3.17 ± 0.26 µM; against HDAC1 it was 227 ± 9 nM; at HDAC8, over 5 µM; in [3], 560 ± 30 nM. Moreover, the 50% inhibitory concentration (IC50) on HDAC3 amounted to 418 ± 40 nM. Besides, the “SI (selectivity index)” value in [1] was 8.9; on HDAC1 it was over 44.1. In addition, the “proportion of cells in S phase” value with HL-60 cells [4] (0.1 μM) is 49.1%; in the test on HL-60 cells [4] (0.5 μM) it was 50.4%; with HL-60 cells [4] (2.5 μM), 59.2%. Further, the “histone H3 acetylation (Ac-H3) level” value in the test on HL-60 cells [5] is reported as “significantly induced histone H3 acetylation”. Moreover, the “expression of Rb” value with HL-60 cells [5] is “significantly down-regulated”. For the same molecule, in the test on HL-60 cells [5], the “expression of p-Rb” value was “significantly down-regulated”. Further, the “expression of γ-H2AX” value in the test with HL-60 cells [5] is “up-regulated”. The “IC50 HDAC8” value on HDAC8 was “no inhibitory effect; also recorded: no inhibitory activity”. Besides, the “proportion of apoptotic cells” value in the test with HL-60 cells [6] (2.5 μM) is 85.8%. In addition, at HDAC6, the “IC50 HDAC6” value is given as “no inhibitory effect; also recorded: no inhibitory activity”.
Consider `COc1cccc2c(=O)c3c(Cl)ccc(C(=O)NCCCCCCC(=O)Nc4ccccc4N)c3[nH]c12` [Compound 11c, N-(7-((2-aminophenyl)amino)-7-oxoheptyl)-1-chloro-5-methoxy-9-oxo-9,10-dihydroacridine-4-carboxamide], for which the half-maximal inhibitory concentration (IC50) is 7.19 ± 1.52 µM in test [1]; 177 ± 8 nM on HDAC10; 4.21 ± 0.57 µM in test [2]; 87 ± 3 nM against HDAC1; over 5 µM against HDAC8; 1240 ± 80 nM in [3]. This molecule also registered an IC50 on HDAC3 of 225 ± 9 nM. In addition, the “SI (selectivity index)” value is given as 5.8 in test [1] and over 114.9 on HDAC1. Also, the entries for the “proportion of cells in S phase” value with HL-60 cells [4] (0.2 μM), in the test with HL-60 cells [4] (1 μM) and with HL-60 cells [4] (5 μM) were 48.4%, 52.7% and 58.4%, respectively. Besides, in the test with HL-60 cells [5], the “histone H3 acetylation (Ac-H3) level” value is “significantly induced histone H3 acetylation”. Moreover, in the test with HL-60 cells [5], the “expression of Rb” value is listed as “significantly down-regulated”. Further, the “expression of p-Rb” value in the test with HL-60 cells [5] is given as “significantly down-regulated”. Besides, the “expression of γ-H2AX” value in the test on HL-60 cells [5] is on record as “up-regulated”. In addition, on HDAC8, the “IC50 HDAC8” value is recorded as “no inhibitory effect; also recorded: no inhibitory activity”. For the same molecule, the “proportion of apoptotic cells” value in the test on HL-60 cells [6] (5 μM) was determined as 70.3%. For the same molecule, at HDAC6, the “IC50 HDAC6” value is listed as “no inhibitory effect; also recorded: no inhibitory activity”.
As to `COc1cccc2c(=O)c3c(Cl)ccc(C(=O)NCCCCCCC(=O)Nc4ccc(F)cc4N)c3[nH]c12` [Compound 11d, N-(7-((2-amino-4-fluorophenyl)amino)-7-oxoheptyl)-1-chloro-5-methoxy-9-oxo-9,10-dihydroacridine-4-carboxamide], the concentration for half-maximal inhibition (IC50) turned out to be 7.51 ± 0.74 µM in test [2], 247 ± 38 nM against HDAC1 and 10200 ± 3200 nM in test [3]. Further, the “SI (selectivity index)” value at HDAC1 is listed as over 40.5.
Take `Cc1c(C(=O)Nc2ccccc2N)cc(Br)c2c(=O)c3ccccc3[nH]c12` [Compound 16a, N-(2-aminophenyl)-1-bromo-4-methyl-9-oxo-9,10-dihydroacridine-3-carboxamide]: the “IC50 HDAC1” value at HDAC1 is on record as “completely lost”.
The same measure, in the same setting: to `Cc1c(C(=O)Nc2ccc(Br)cc2N)cc(Br)c2c(=O)c3ccccc3[nH]c12` [Compound 16b, N-(2-amino-4-bromophenyl)-1-bromo-4-methyl-9-oxo-9,10-dihydroacridine-3-carboxamide] belongs “completely lost”.
